Results from EP4620955A1, “MC4R ANTAGONIST COMPOUND, PHARMACEUTICAL COMPOSITION AND PHARMACEUTICAL USE THEREOF” (Changchun Genescience Pharmaceutical Co., Ltd., priority 2022, dated 2024).

Target: T1, MC4R (Homo sapiens, UniProt P32245)
T1 construct: expressed in transfected cells; host or cells: flipin-293-MC4 (Flp-In 293 host, hygromycin selection)
Test: Assay of MC4R antagonist activity in cells in vitro (cAMP assay, Melanotan I stimulation)
Format: cell-based
Details: flipin-293-MC4 cell line, Melanotan I as agonist
Procedure: Test Example 1: Assay of MC4R antagonist activity in cells in vitro
a. Experimental consumables:
b. Experimental steps • ✔ Cell line: flipin-293-MC4 • ✔ Cell culture medium: DMEM, 10% fetal bovine serum, 1 × PS, 200 µg/mL hygromycin • ✔ Experimental buffer: HBSS, 20 mM HEPES, 0.1% BSA, 500 µM IBMX • ✔ Positive compound: ML00253764 c. Antagonist detection • 1. Digested cells were suspended in the experimental buffer, and then inoculated into the 384-well cell culture plate. • 2. The to-be-detected compound was added to the cell plate, and incubated at 37°C for 10 min. • 3. Melanotan I was added to the cell plate, and incubated at 37°C for 30 min. • 4. Two detection reagents EU cAMP tracer and ulight anti camp were thawed and diluted with a lysis solution in the kit. • 5. The diluted detection reagents were added to the cell plate and incubated at room temperature for 1 h. • 6. Reading was carried out by Envision. (Excitation light: 340 nm, emission light: 615 nm and 665 nm) d. Data analysis • 1. %Inhibition calculation: %Inhibition = (Signalcmpd−SignalAve_VC)/(SignalAve_PC−SignalAve_VC) × 100. [formula] • Signalcmpd: compound signal value; • SignalAve_VC: negative control signal value; • SignalAve_PC: positive control signal value; • %inhibition: inhibition percentage. • 2. Calculation of IC50 of the compound using the nonlinear fitting equation in GraphPad: Y = Bottom + (Top−Bottom)/(1+10^(∧)((LogIC50−X)×HillSlope)) [formula] X: logarithmic value of the concentration of the compound; Y: inhibition percentage

T1 sequence (P32245 whole entry): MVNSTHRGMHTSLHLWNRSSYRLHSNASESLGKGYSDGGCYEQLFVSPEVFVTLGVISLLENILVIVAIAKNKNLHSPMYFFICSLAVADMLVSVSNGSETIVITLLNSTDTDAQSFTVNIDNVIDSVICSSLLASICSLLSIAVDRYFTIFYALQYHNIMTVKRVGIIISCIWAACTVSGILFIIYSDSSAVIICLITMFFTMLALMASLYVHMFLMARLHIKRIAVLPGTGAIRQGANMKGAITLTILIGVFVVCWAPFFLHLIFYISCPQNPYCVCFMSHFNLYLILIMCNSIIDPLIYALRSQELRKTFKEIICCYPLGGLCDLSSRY

Point of comparison: `COc1cc([C@@H](C)C(=O)N2C[C@@H](Nc3ccc(-c4cn5c(n4)CCC5)c(C)n3)C3(CC3)C2)c(Cl)cn1` [Compound 188, (R)-2-(5-chloro-2-methoxypyridine-4-yl)-1-((S)-7-((5-(6,7-dihydro-5H-pyrrolo[1,2-a]imidazol-2-yl)-6-methylpyridine-2-yl)amino)-5-azaspiro[2.4]hept-5-yl)propan-1-one], IC50 2.11 nM. Against it:
- COc1cc([C@@H](C)C(=O)N2C[C@@H](Nc3ccc(-c4nc(C)n(C)n4)c(C)n3)C3(CC3)C2)c(Cl)cn1 [Compound 141, (2R)-2-(5-chloro-2-methoxypyridine-4-yl)-1-[(7S)-7-{[5-(1,5-dimethyl-1H-1,2,4-triazole-3-yl)-6-methylpyridine-2-yl]amino}-5-azaspiro[2.4]heptane-5-yl]propan-1-one] — within 1.5-fold, 2.88 nM
- COc1cc([C@@H](C)C(=O)N2C[C@@H](Nc3ccc(-c4ncn(C)n4)c(C)n3)C3(CC3)C2)c(Cl)cn1 [Compound 142, (2R)-2-(5-chloro-2-methoxypyridine-4-yl)-1-[(7S)-7-{[6-methyl-5-(1-methyl-1H-1,2,4-triazole-3-yl)pyridine-2-yl]amino}-5-azaspiro[2.4]heptane-5-yl]propan-1-one] — 1.6-fold higher, 3.29 nM
- COc1cc([C@@H](C)C(=O)N2C[C@@H](Nc3ccc(-c4cnn(C)c4)c(C)n3)C3(CC3)C2)c(F)cn1 [Compound 143, (2R)-2-(5-fluoro-2-methoxypyridine-4-yl)-1-((7S)-7-((6-methyl-5-(1-methyl-1H-pyrazol-4-yl)pyridine-2-yl)amino)-5-azaspiro[2.4]heptane-5-yl)propan-1-one] — 2.7-fold higher, 5.73 nM
- COc1cc([C@@H](C)C(=O)N2C[C@@H](Nc3ccc(-c4cnn(C)c4)c(C)n3)C3(CC3)C2)c(Cl)cn1 [Compound 144] — within 1.5-fold, 1.83 nM
- COc1cc([C@@H](C)C(=O)N2C[C@@H](Nc3ccc(-c4cn(C)c(C)n4)c(C)n3)C3(CC3)C2)c(F)cn1 [Compound 149, (R)-1-((S)-7-((5-(1,2-dimethyl-1H-imidazol-4-yl)-6-methylpyridine-2-yl)amino)-5-azaspiro[2.4]hept-5-yl)-2-(5-fluoro-2-methoxypyridine-4-yl)propan-1-one] — within 1.5-fold, 1.74 nM
- COc1cc([C@@H](C)C(=O)N2C[C@@H](Nc3ccc(-c4cn(C)cn4)c(C)n3)C3(CC3)C2)c(F)cn1 [Compound 150, (R)-2-(5-fluoro-2-methoxypyridine-4-yl)-1-((S)-7-((6-methyl-5-(1-methyl-1H-imidazol-4-yl)pyridine-2-yl)amino)-5-azaspiro[2.4]hept-5-yl)propan-1-one] — within 1.5-fold, 1.84 nM
- COc1cc([C@@H](C)C(=O)N2C[C@@H](Nc3ccc(-c4nccc(C(F)F)n4)c(C)n3)C3(CC3)C2)c(F)cn1 [Compound 155, (R)-1-((S)-7-((5-(4-(difluoromethyl)pyrimidine-2-yl)-6-methylpyridine-2-yl)amino)-5-azaspiro[2.4]hept-5-yl)-2-(5-fluoro-2-methoxypyridine-4-yl)propan-1-one] — within 1.5-fold, 3.04 nM
- COc1cc([C@@H](C)C(=O)N2C[C@@H](Nc3ccc(-c4nccc(C(F)F)n4)c(C)n3)C3(CC3)C2)c(Cl)cn1 [Compound 156, (R)-2-(5-chloro-2-methoxypyridine-4-yl)-1-((S)-7-((5-(4-(difluoromethyl)pyrimidine-2-yl)-6-methylpyridine-2-yl)amino)-5-azaspiro[2.4]hept-5-yl)propan-1-one] — within 1.5-fold, 1.85 nM
- COc1cc([C@@H](C)C(=O)N2C[C@@H](Nc3ccc(-c4cnn(C)n4)c(C)n3)C3(CC3)C2)c(Cl)cn1 [Compound 166, (R)-2-(5-chloro-2-methoxypyridine-4-yl)-1-((S)-7-((6-methyl-5-(2-methyl-2H-1,2,3-triazol-4-yl)pyridine-2-yl)amino)-5-azaspiro[2.4]hept-5-yl)propan-1-one] — 1.9-fold higher, 4.03 nM
- COc1cc([C@@H](C)C(=O)N2C[C@@H](Nc3ccc(-c4cc(C#N)ccn4)c(C)n3)C3(CC3)C2)c(Cl)cn1 [Compound 168, 6'-(((S)-5-((R)-2-(5-chloro-2-methoxypyridine-4-yl)propionyl)-5-azaspiro[2.4]hept-7-yl)amino)-2'-methyl-[2,3'-bipyridyl]-4-carbonitrile] — 1.7-fold higher, 3.68 nM
- COc1cc([C@@H](C)C(=O)N2C[C@@H](Nc3ccc(-c4cn(C)c(C(C)(C)O)n4)c(C)n3)C3(CC3)C2)c(F)cn1 [Compound 181, (R)-2-(5-fluoro-2-methoxypyridine-4-yl)-1-((S)-7-((5-(2-(2-hydroxypropan-2-yl)-1-methyl-1H-imidazol-4-yl)-6-methylpyridine-2-yl)amino)-5-azaspiro[2.4]hept-5-yl)propan-1-one] — within 1.5-fold, 1.59 nM
- COc1cc([C@@H](C)C(=O)N2C[C@@H](Nc3ccc(-c4cn(C)c(C(C)(C)O)n4)c(C)n3)C3(CC3)C2)c(Cl)cn1 [Compound 182, (R)-2-(5-chloro-2-methoxypyridine-4-yl)-1-((S)-7-((5-(2-(2-hydroxypropan-2-yl)-1-methyl-1H-imidazol-4-yl)-6-methylpyridine-2-yl)amino)-5-azaspiro[2.4]hept-5-yl)propan-1-one] — 2.5-fold lower, 0.86 nM
- COc1cc([C@@H](C)C(=O)N2C[C@@H](Nc3ccc(-c4cn(C)c(OC)n4)c(C)n3)C3(CC3)C2)c(Cl)cn1 [Compound 184, (R)-2-(5-chloro-2-methoxypyridine-4-yl)-1-((S)-7-((5-(2-methoxy-1-methyl-1H-imidazol-4-yl)-6-methylpyridine-2-yl)amino)-5-azaspiro[2.4]hept-5-yl)propan-1-one] — within 1.5-fold, 1.49 nM
- COc1cc([C@@H](C)C(=O)N2C[C@@H](Nc3ccc(-c4cn(C)c(OC(F)F)n4)c(C)n3)C3(CC3)C2)c(Cl)cn1 [Compound 186, (R)-2-(5-chloro-2-methoxypyridine-4-yl)-1-((S)-7-((5-(2-(difluoromethoxy)-1-methyl-1H-imidazol-4-yl)-6-methylpyridine-2-yl)amino)-5-azaspiro[2.4]hept-5-yl)propan-1-one] — 3.8-fold lower, 0.55 nM
- COc1cc([C@@H](C)C(=O)N2C[C@@H](Nc3ccc(-c4cn5c(n4)CCC5)c(C)n3)C3(CC3)C2)c(F)cn1 [Compound 187, (R)-1-((S)-7-((5-(6,7-dihydro-5H-pyrrolo[1,2-a]imidazol-2-yl)-6-methylpyridine-2-yl)amino)-5-azaspiro[2.4]hept-5-yl)-2-(S-fluoro-2-methoxypyridine-4-yl)propan-1-one] — 1.6-fold higher, 3.42 nM
- COc1cc([C@@H](C)C(=O)N2C[C@@H](Nc3ccc(-c4cn5c(n4)C(F)(F)CC5)c(C)n3)C3(CC3)C2)c(F)cn1 [Compound 189, (R)-1-((S)-7-((5-(7,7-difluoro-6,7-dihydro-5H-pyrrolo[1,2-a]imidazol-2-yl)-6-methylpyridine-2-yl)amino)-5-azaspiro[2.4]hept-5-yl)-2-(5-fluoro-2-methoxypyridine-4-yl)propan-1-one] — within 1.5-fold, 2.25 nM
- COc1cc([C@@H](C)C(=O)N2C[C@@H](Nc3ccc(-c4cn5c(n4)C(F)(F)CC5)c(C)n3)C3(CC3)C2)c(Cl)cn1 [Compound 190, (R)-2-(5-chloro-2-methoxypyridine-4-yl)-1-((S)-7-((5-(7,7-difluoro-6,7-dihydro-5H-pyrrolo[1,2-a]imidazol-2-yl)-6-methylpyridine-2-yl)amino)-5-azaspiro[2.4]hept-5-yl)propan-1-one] — 1.9-fold lower, 1.1 nM
- COc1cc([C@@H](C)C(=O)N2CC[C@H](Nc3ccc(-c4cn(C)nn4)c(C)n3)C2)c(Cl)cn1 [Compound 195, (R)-2-(5-chloro-2-methoxypyridine-4-yl)-1-((S)-3-((6-methyl-5-(1-methyl-1H-1,2,3-triazol-4-yl)pyridine-2-yl)amino)pyrrolidine-1-yl)propan-1-one] — 2.1-fold lower, 0.99 nM
- COc1cc([C@@H](C)C(=O)N2C[C@@H](Nc3ccc(-c4cn(C(F)F)nn4)c(C)n3)C3(CC3)C2)c(Cl)cn1 [Compound 196, (R)-2-(5-chloro-2-methoxypyridine-4-yl)-1-((S)-7-((S-(1-(difluoromethyl)-1H-1,2,3-triazol-4-yl)-6-methylpyridine-2-yl)amino)-5-azaspiro[2.4]hept-5-yl)propan-1-one] — 2.3-fold higher, 4.88 nM
- COc1cc([C@@H](C)C(=O)N2C[C@@H](C)[C@H](Nc3ccc(-c4ncccn4)c(C)n3)C2)c(Cl)cn1 [Compound 198, (R)-2-(5-chloro-2-methoxypyridine-4-yl)-1-((3R,4S)-3-methyl-4-((6-methyl-5-(pyrimidine-2-yl)pyridine-2-yl)amino)pyrrolidine-1-yl)propan-1-one] — 2.3-fold higher, 4.9 nM
- COc1cc([C@@H](C)C(=O)N2C[C@@H](Nc3ccc(-c4ncccn4)c(C)n3)C(C)(C)C2)c(Cl)cn1 [Compound 199, (R)-2-(5-chloro-2-methoxypyridine-4-yl)-1-((S)-3,3-dimethyl-4-((6-methyl-5-(pyrimidine-2-yl)pyridine-2-yl)amino)pyrrolidine-1-yl)propan-1-one] — 170-fold higher, 366 nM
